Experimental data from patent US10822415B2, “Methods for enhancing the potency of the immune checkpoint inhibitors” (INSERM (INSTITUT NATIONAL DE LA SANTÉ ET DE LA RECHERCHE …, priority 2016, dated 2020).

Columns and labels:
[1] = target: S1PR1 (Mus musculus, UniProt O08530); settings: mice; by inhibiting tumor vascularization; cited from earlier work
[2] = system: Yumm murine melanoma cells; assay: SKI-I treatment with or without immune checkpoint antibody in mice with untransfected Yumm tumors; type: in vivo; settings: mice harboring Yumm tumors, SKI-I combined with anti-PD-1
Procedure: Animal experiments were conducted in accordance with national and international policies, and our protocol was approved by the Regional Ethics Committee of Midi-Pyrenees. 3.105 of Yumm cell lines (Untransfected, shCtrl, shSK1 or shSK1(2)) were intradermally injected into the flank of 7-week-old C57BL/6 mice (Charles River, L'Arbresle, France). CD8-deficient C57BL/6 mice were a gift from Prof. J. van Meerwijk (INSERM U1043, Toulouse, France). Tumor volume was calculated using a caliper at the indicated days as described (Albinet, Bats et al. 2014). For combination experiments involving shCtrl or shSK1 Yumm cells, mice were challenged intradermally (i.d.) with 3.105 cells on day 0 on their right flank. Mice were then injected i.p. three times with anti-CTLA-4 (200 μg per mouse on D7 and 100 μg per mouse on D10 and D13), and/or with anti-PD-1 or isotype control antibody (200 μg per mouse on D5, D7 and D10). Tumor volumes were measured every 2-3 days. Anti-CTLA-4 (9H10), anti-PD-1 (RMP1-14) and isotype control (2A3) were purchased from BioXcell.
For SKI-I treatment, 5 days after Yumm or MC38 cell implantation, mice were treated or not with 50 mg/kg SKI-I (N′-[(2-hydroxynaphthalen-1-yl)methylidene]-3-(naphthalen-2-yl)-1H-pyrazole-5-carbohydrazide, Enamine) in 50 μl of a mixture of DMSO (10%), Cremophor (5%), Tween-80 (5%) and glucose (80%) (i.p.). […]

Chain of S1PR1 (O08530 whole entry): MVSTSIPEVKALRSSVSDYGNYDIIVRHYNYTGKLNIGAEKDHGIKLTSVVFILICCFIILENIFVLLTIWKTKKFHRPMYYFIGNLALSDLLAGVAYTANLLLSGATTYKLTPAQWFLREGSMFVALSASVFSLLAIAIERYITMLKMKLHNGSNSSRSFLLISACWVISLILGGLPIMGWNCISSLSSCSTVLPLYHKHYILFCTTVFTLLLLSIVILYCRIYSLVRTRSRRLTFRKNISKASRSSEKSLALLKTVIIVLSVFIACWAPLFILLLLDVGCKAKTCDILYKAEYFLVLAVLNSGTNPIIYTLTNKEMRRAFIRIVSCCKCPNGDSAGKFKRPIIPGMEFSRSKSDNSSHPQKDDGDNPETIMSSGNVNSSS

SMILES | melanoma progression [1] | efficacy of anti-PD-1 (tumor growth) [2]
CCCCCCCCc1ccc(CCC(N)(CO)CO)cc1 [FTY720] | reduced melanoma progression | 
O=C(N/N=C/c1c(O)ccc2ccccc12)c1cc(-c2ccc3ccccc3c2)n[nH]1 [SKI-I, N′-[(2-hydroxynaphthalen-1-yl)methylidene]-3-(naphthalen-2-yl)-1H-pyrazole-5-carbohydrazide] |  | enhanced the efficacy of anti-PD-1
